Laboratory results published in patent publication US20140038991A1, “Protein Kinase Inhibitors” (Astar Biotech LLC, priority 2012, published 2014).

Experiments:
[1] = test system: LNCaP (with PTEN-null, prostate tumor cell line); test: Cell-based viability assay (trypan blue exclusion) in LNCaP cells; conditions: 72 hours treatment, read-out: LNCaP (with PTEN-null, prostate tumor cell line), IC50 (nM) (using cell trypan blue exclusion assay to detect the cell viability)
Procedure: 1. Cell-Based Assays: Cells were seeded in 24-well plates with a concentration of 10×10^5 cells/mL/well, and treated with the designated agents in the next day. After 72 hours treatment, cells were harvested and stained using the trypan blue exclusion method and measured using the TC-10™ automated cell counter (Bio-rad).

[2] = test system: downstream targets of PI3K/mTOR in T47D (with PIK3CA mutation, breast tumor cell line); test: Western blot detection of downstream targets of PI3K/mTOR in T47D cells; format: cell-based; conditions: read-out: T47D (with PIK3CA mutation, breast tumor cell line), IC50 (nM) (using Westin blot to detect the downstream targets of PI3K/mTOR)
Procedure: a. Harvest Cells and Run Cell Extracts on a SDS-PAGE Gel
Cells were harvested bytrypsinization and centrifugation at 500 rpm for 5 min and the supernatant was removed. Cell pellet was resuspended with appropriate volume of 1× lysis buffer (10× lysis buffer from Cell Signaling Technology, Catalog #9803, Boston, Mass.) containing protease inhibitors (Protease Inhibitor Cocktail Tablets, Roche, cat#11 697 498 001 and PMSF, NaF, Na3VO3, Leupeptin and pepstatin A), then directly sonicated the suspension for 5 seconds. Protein concentration was measured using Pierce BAC protein assay kit (catalog #23227). The protein sample was read with EL800 of Bio-TEK at […] wave length and the concentration was calculated. 60 ug protein of each sample was loaded on an 8-15% SDS-PAGE and run at 120V for an appropriate period till the dye front reached the bottom of the gel. […]
b. Transfer the Protein from the Gel to a Membrane
Placed a cassette using pre-wet Watman paper(bio-rad, catalog #1703932), gel and membrane (PVDF membrane with pre-soak in methanol for 3 min, then equilibrated in transfer buffer for 5 min), and performed the transfer using bio-rad transfer system at 100v for 1.5 hr at cool room.
Removed the membrane from the transfer apparatus and placed it in the blocking buffer [5% non-fat dry milk in 1×TBS-T containing NaCl 8 g, Tris-Cl 2.37 g, TrisBase 0.6 g in 1 liter of water (pH 7.6) and 1 ml of Tween-20]. Incubated the membrane in the blocking buffer on a shaker for 0.5-1 hr at room temperature.
Diluted the primary antibody at 1:1000 using TBS-T containing 5% non-fat dry milk, and incubated the membrane in the primary antibody solution on a shaker overnight at 4° C. Then removed the primary antibody solution, and washed the membrane with 1×TBS-T 3 times for 10 min each time. e. Secondary Antibody, Substrate Addition and Film Explosure
Diluted the second antibody (cell signaling technology cat#7076 anti-mouse IgG, HRP-linked antibody, or cat#7074, anti-rabbit IgG, HRP-linked antibody) at 1:3000 using TBS-T containing 5% non-fat dry milk. Decanted the wash buffer and incubated the membrane in the prepared secondary antibody solution on shaker for 2 hr at room temperature. Decanted the secondary antibody solution and washed thoroughly with 1×TBS-T for 3 times for 10 min each time. Prepared for substrate solution: luminal/enhancer solution mix with stable peroxide solution (Amersham ECL Plus™ Western Blotting Detection Reagents. Cat#: RPN2132). Total amount of substrate solution needed was approximate 2 ml per membrane. Placed the membrane with the protein side up on a flat Saran wrap, and dropped the prepared substrate solution over the membrane, and incubated the membrane for 2 minutes. […]

SMILES | IC50 [1] | IC50 [2]
COc1ncc(-c2cc3c(C)nc(N)nc3n([C@H]3CC[C@H](OCCO)CC3)c2=O)cc1NS(=O)(=O)c1ccccc1 [Example 1, N-(5-(2-amino-8-(trans-4-(2-hydroxyethoxy)-cyclohexyl)-4-methyl-7-oxo-7,8-dihydropyrido[2,3-d]pyrimidin-6-yl)-2-methoxypyridin-3-yl)benzenesulfonamide] | 35 nM | 12 nM
COc1ncc(-c2cc3c(C)nc(N)nc3n([C@H]3CC[C@H](OCCO)CC3)c2=O)cc1NS(C)(=O)=O [Example 2, N-(5-(2-amino-8-(trans-4-(2-hydroxyethoxy)cyclohexyl)-4-methyl-7-oxo-7,8-dihydropyrido[2,3-d]pyrimidin-6-yl)-2-methoxypyridin-3-yl)methanesulfonamide] | 150 nM | 
CCS(=O)(=O)Nc1cc(-c2cc3c(C)nc(N)nc3n([C@H]3CC[C@H](OCCO)CC3)c2=O)cnc1OC [Example 3, N-(5-(2-amino-8-(trans-4-(2-hydroxyethoxy)cyclohexyl)-4-methyl-7-oxo-7,8-dihydropyrido [2,3-d]pyrimidin-6-yl)-2-methoxypyridin-3-yl)ethanesulfonamide] | 140 nM | 
COc1ncc(-c2cc3c(C)nc(N)nc3n([C@H]3CC[C@H](OCCO)CC3)c2=O)cc1NS(=O)(=O)C1CC1 [Example 4, N-(5-(2-amino-8-(trans-4-(2-hydroxyethoxy)cyclohexyl)-4-methyl-7-oxo-7,8-dihydropyrido[2,3-d]pyrimidin-6-yl)-2-methoxypyridin-3-yl)cyclopropanesulfonamide] | 130 nM | 
COc1ncc(-c2cc3c(C)nc(N)nc3n([C@H]3CC[C@H](OCCO)CC3)c2=O)cc1NS(=O)(=O)c1ccc(F)cc1 [Example 5, N-(5-(2-amino-8-(trans-4-(2-hydroxyethoxy)cyclohexyl)-4-methyl-7-oxo-7,8-dihydropyrido[2,3-d]pyrimidin-6-yl)-2-methoxypyridin-3-yl)-4-fluorobenzenesulfonamide] | 55 nM | 

Next, values leading:

IC50 [1] | IC50 [2] | SMILES
60 nM |  | COc1ncc(-c2cc3c(C)nc(N)nc3n([C@H]3CC[C@H](OCCO)CC3)c2=O)cc1NS(=O)(=O)c1c(F)cccc1F [Example 6, N-(5-(2-amino-8-(trans-4-(2-hydroxyethoxy)cyclohexyl)-4-methyl-7-oxo-7,8-dihydropyrido[2,3-d]pyrimidin-6-yl)-2-methoxypyridin-3-yl)-2,6-difluorobenzenesulfonamide]
40 nM | 12 nM | COc1ccc(S(=O)(=O)Nc2cc(-c3cc4c(C)nc(N)nc4n([C@H]4CC[C@H](OCCO)CC4)c3=O)cnc2OC)cc1 [Example 7, N-(5-(2-amino-8-(trans-4-(2-hydroxyethoxy)cyclohexyl)-4-methyl-7-oxo-7,8-dihydropyrido[2,3-d]pyrimidin-6-yl)-2-methoxypyridin-3-yl)-4-methoxybenzenesulfonamide]
45 nM | 15 nM | COc1ncc(-c2cc3c(C)nc(N)nc3n([C@H]3CC[C@H](OCCO)CC3)c2=O)cc1NS(=O)(=O)c1ccc(C)cc1 [Example 8, N-(5-(2-amino-8-(trans-4-(2-hydroxyethoxy)cyclohexyl)-4-methyl-7-oxo-7,8-dihydropyrido[2,3-d]pyrimidin-6-yl)-2-methoxypyridin-3-yl)-4-methylbenzenesulfonamide]
75 nM | 85 nM | COc1ccc(-c2cc3c(C)nc(N)nc3n(C3CCC(OCCO)CC3)c2=O)cn1 (stereo not shown) [PF-1502, reference compound]
